# Results reported in PubChem BioAssay AID270 (DTP/NCI, 2004).
# “And” between values parts separate entries of the source, which are not always exact repeats. Equal values may be shown once. Inconclusive results are not listed. *1 amine or outer side, *2 acyl side, *3 side chain or, on linkers, in order; H or OH if unused. Where a SMILES comes first, the peptide text is derived from it. Bridges are numbered along the chain shown (N, C = ends). [ ]: non-standard residue; d: D form. The star is where a group is joined. X2 = CC(C)C(C)C(C(=O)[*:2])N(C)[*:1]; Picolinoyl(3-OH) = O=C(c1ncccc1O)*; NMePhg = CN[CH](C(=O)O)c1ccccc1; Hyp = O=C(O)[CH]1C[CH](O)CN1; Sar = CNCC(=O)O
# System: BDF1 mice, s.c. Lewis lung carcinoma, T/C %
# Experiment: NCI In Vivo Anticancer Drug Screen. Data for tumor model Lewis Lung Carcinoma (subcutaneous) in B6D2F1 (BDF1) mice
# Procedure, shortened: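 Tumor-bearing mice were treated with test compound, and either survival or tumor size was recorded. Values are the treated-group measurement divided by that of the vehicle-treated control group.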
# [1] = endpoint: mean tumor weight, dose: 300.0 mg/kg/injection, schedule: Q01DX011 (ip), vehicle: other, higher = larger tumour
# [2] = endpoint: mean tumor weight, dose: 200.0 mg/kg/injection, schedule: Q01DX011 (ip), vehicle: other, higher = larger tumour
# [3] = endpoint: median survival time, dose: 50.0 mg/kg/injection, schedule: Q01DX009 (ip), vehicle: saline, higher = longer survival
# [4] = endpoint: median survival time, dose: 100.0 mg/kg/injection, schedule: Q01DX009 (ip), vehicle: saline, higher = longer survival
# [5] = endpoint: median survival time, dose: 6.25 mg/kg/injection, schedule: Q01DX009 (ip), vehicle: Klucel (hydroxypropylcellulose) (HPC), higher = longer survival
# [6] = endpoint: median survival time, dose: 12.5 mg/kg/injection, schedule: Q01DX009 (ip), vehicle: Klucel (hydroxypropylcellulose) (HPC), higher = longer survival
# [7] = endpoint: median survival time, dose: 25.0 mg/kg/injection, schedule: Q01DX009 (ip), vehicle: Klucel (hydroxypropylcellulose) (HPC), higher = longer survival
structure (smiles),measurement,setting,value
CC(C)CCSc1nc(N)nc2nc[nH]c12,T/C,[1],59 % of control
O=NN(CCF)C(=O)NC1CCSc2ccccc21 (configuration not stated),T/C,"endpoint: median survival time, dose: 24.0 mg/kg/injection, schedule: Q01DX001 (ip), vehicle: saline with Tween-80, higher = longer survival",88 % of control
S=c1c2[nH]cnc2ncn1CCSC1=NC=NC2=NC=NC21 (configuration not stated),T/C,"endpoint: mean tumor weight, dose: 50.0 mg/kg/injection, schedule: Q01DX011 (ip), vehicle: other, higher = larger tumour",96 % of control
same,T/C,"endpoint: mean tumor weight, dose: 100.0 mg/kg/injection, schedule: Q01DX011 (ip), vehicle: other, higher = larger tumour",53 % of control
same,T/C,[2],61 % of control
same,T/C,"endpoint: mean tumor weight, dose: 400.0 mg/kg/injection, schedule: Q01DX011 (ip), vehicle: other, higher = larger tumour",37 % of control
CN(N=O)C(N)=O,T/C,"endpoint: mean tumor weight, dose: 2.5 mg/kg/injection, schedule: Q01DX011 (ip), vehicle: saline, higher = larger tumour",78 % of control
same,T/C,"endpoint: mean tumor weight, dose: 5.0 mg/kg/injection, schedule: Q01DX011 (ip), vehicle: saline, higher = larger tumour",77 % of control
same,T/C,"endpoint: mean tumor weight, dose: 10.0 mg/kg/injection, schedule: Q01DX011 (ip), vehicle: saline, higher = larger tumour",57 % of control
same,T/C,"endpoint: mean tumor weight, dose: 20.0 mg/kg/injection, schedule: Q01DX011 (ip), vehicle: saline, higher = larger tumour",20 % of control
CC(CN1CC(=O)NC(=O)C1)N1CC(=O)NC(=O)C1 (configuration not stated),T/C,"endpoint: median survival time, dose: 0.5 mg/kg/injection, schedule: Q01DX009 (ip), vehicle: saline, higher = longer survival",91 % of control
same,T/C,"endpoint: median survival time, dose: 1.0 mg/kg/injection, schedule: Q01DX009 (ip), vehicle: saline, higher = longer survival",109 % of control
same,T/C,"endpoint: median survival time, dose: 1.9 mg/kg/injection, schedule: Q01DX009 (ip), vehicle: saline, higher = longer survival",112 % of control
same,T/C,"endpoint: median survival time, dose: 3.75 mg/kg/injection, schedule: Q01DX009 (ip), vehicle: saline, higher = longer survival",106 % of control
same,T/C,"endpoint: median survival time, dose: 7.5 mg/kg/injection, schedule: Q01DX009 (ip), vehicle: saline, higher = longer survival",108 % of control
same,T/C,"endpoint: median survival time, dose: 15.0 mg/kg/injection, schedule: Q01DX009 (ip), vehicle: Klucel (hydroxypropylcellulose) (HPC), higher = longer survival",112 % of control
same,T/C,"endpoint: median survival time, dose: 30.0 mg/kg/injection, schedule: Q01DX009 (ip), vehicle: Klucel (hydroxypropylcellulose) (HPC), higher = longer survival",86 % of control
same,T/C,"endpoint: median survival time, dose: 60.0 mg/kg/injection, schedule: Q01DX009 (ip), vehicle: Klucel (hydroxypropylcellulose) (HPC), higher = longer survival",116 % of control
same,T/C,"endpoint: median tumor weight (est.), dose: 13.0 mg/kg/injection, schedule: Q01DX011 (ip), vehicle: saline, higher = larger tumour",57 % of control and 74 % of control
same,T/C,"endpoint: median tumor weight (est.), dose: 20.0 mg/kg/injection, schedule: Q01DX011 (ip), vehicle: saline, higher = larger tumour",58 % of control and 79 % of control
same,T/C,"endpoint: median tumor weight (est.), dose: 30.0 mg/kg/injection, schedule: Q01DX011 (ip), vehicle: saline, higher = larger tumour",68 % of control
Cc1nc(N)c(C)c(C(=O)O)n1,T/C,"endpoint: median survival time, dose: 50.0 mg/kg/injection, schedule: Q01DX009 (ip), vehicle: water, higher = longer survival",113 % of control
same,T/C,"endpoint: median survival time, dose: 100.0 mg/kg/injection, schedule: Q01DX009 (ip), vehicle: water, higher = longer survival",117 % of control
same,T/C,"endpoint: median survival time, dose: 200.0 mg/kg/injection, schedule: Q01DX009 (ip), vehicle: water, higher = longer survival",116 % of control
CNC1C(O)C(NC)C2OC3(O)C(=O)CC(C)OC3OC2C1O (configuration not stated),T/C,"endpoint: median survival time, dose: 25.0 mg/kg/injection, schedule: Q01DX009 (ip), vehicle: saline, higher = longer survival",111 % of control
same,T/C,[3],96 % of control
same,T/C,[4],110 % of control
CC(C)=CCC(OC(=O)C=C(C)C)C1=CC(=O)c2c(O)ccc(O)c2C1=O (configuration not stated),T/C,[5],104 % of control
same,T/C,[6],88 % of control
same,T/C,[7],118 % of control
Cc1cccc(NC(=O)N(CCCl)N=O)c1,T/C,"endpoint: median survival time, dose: 0.38 mg/kg/injection, schedule: Q01DX009 (ip), vehicle: saline with Tween-80, higher = longer survival",96 % of control
same,T/C,"endpoint: median survival time, dose: 0.75 mg/kg/injection, schedule: Q01DX009 (ip), vehicle: saline with Tween-80, higher = longer survival",102 % of control
same,T/C,"endpoint: median survival time, dose: 3.0 mg/kg/injection, schedule: Q01DX009 (ip), vehicle: saline with Tween-80, higher = longer survival",92 % of control
O=c1[nH]c(=O)n(C2CC(O)C(CO)O2)cc1C(F)(F)F (configuration not stated),T/C,"endpoint: median survival time, dose: 2.5 mg/kg/injection, schedule: Q01DX009 (ip), vehicle: saline, higher = longer survival",119 % of control
same,T/C,"endpoint: median survival time, dose: 5.0 mg/kg/injection, schedule: Q01DX009 (ip), vehicle: saline, higher = longer survival",103 % of control
same,T/C,"endpoint: median survival time, dose: 10.0 mg/kg/injection, schedule: Q01DX009 (ip), vehicle: saline, higher = longer survival",118 % of control
S=P(NCCNP(=S)(N1CC1)N1CC1)(N1CC1)N1CC1,T/C,[5],100 % of control
same,T/C,[6],102 % of control
same,T/C,[7],104 % of control
CCOC(=O)[C@H]1CCC[C@@H](NC(=O)N(CCCl)N=O)C1,T/C,"endpoint: median tumor weight (est.), dose: 20.0 mg/kg/injection, schedule: Q01DX001 (ip), vehicle: gum acacia, higher = larger tumour",55 % of control
same,T/C,"endpoint: median tumor weight (est.), dose: 30.0 mg/kg/injection, schedule: Q01DX001 (ip), vehicle: gum acacia, higher = larger tumour",34 % of control
O=C(/C(=C\c1ccccc1)CN1CCOCC1)c1ccc(Br)cc1,T/C,[3],113 % of control
same,T/C,[4],105 % of control
CCCCSc1nc(N)nc2c1ncn2CC(C)CC (configuration not stated),T/C,"endpoint: mean tumor weight, dose: 75.0 mg/kg/injection, schedule: Q01DX011 (ip), vehicle: other, higher = larger tumour",103 % of control
same,T/C,"endpoint: mean tumor weight, dose: 150.0 mg/kg/injection, schedule: Q01DX011 (ip), vehicle: other, higher = larger tumour",50 % of control
same,T/C,[1],53 % of control
c1cn[nH]c1,T/C,"endpoint: mean tumor weight, dose: 20.0 mg/kg/injection, schedule: Q01DX011 (ip), vehicle: water, higher = larger tumour",54 % of control
same,T/C,"endpoint: mean tumor weight, dose: 40.0 mg/kg/injection, schedule: Q01DX011 (ip), vehicle: water, higher = larger tumour",45 % of control
same,T/C,"endpoint: mean tumor weight, dose: 80.0 mg/kg/injection, schedule: Q01DX011 (ip), vehicle: water, higher = larger tumour",32 % of control
CCC(CCC(C)C1CCC2C3CC=C4CC(OC(=O)CCC(=O)O)CCC4(C)C3CCC12C)C(C)C (configuration not stated),T/C,"endpoint: mean tumor weight, dose: 200.0 mg/kg/injection, schedule: Q01DX011 (ip), vehicle: water, higher = larger tumour",63 % of control
same,T/C,"endpoint: mean tumor weight, dose: 400.0 mg/kg/injection, schedule: Q01DX011 (ip), vehicle: water, higher = larger tumour",38 % of control
same,T/C,"endpoint: mean tumor weight, dose: 450.0 mg/kg/injection, schedule: Q01DX011 (ip), vehicle: water, higher = larger tumour",59 % of control
same,T/C,"endpoint: mean tumor weight, dose: 600.0 mg/kg/injection, schedule: Q01DX011 (ip), vehicle: water, higher = larger tumour",31 % of control
Fc1ccc(NC(=S)Nc2cc(Cl)cc(Cl)c2)cc1,T/C,"endpoint: mean tumor weight, dose: 7.5 mg/kg/injection, schedule: Q01DX011 (ip), vehicle: carboxymethylcellulose (CMC), higher = larger tumour",60 % of control
Nc1nc2nc[nH]c2c(=O)[nH]1,T/C,"endpoint: mean tumor weight, dose: 6.25 mg/kg/injection, schedule: Q01DX010 (ip), vehicle: saline, higher = larger tumour",73 % of control
same,T/C,"endpoint: mean tumor weight, dose: 12.5 mg/kg/injection, schedule: Q01DX010 (ip), vehicle: saline, higher = larger tumour",71 % of control
same,T/C,"endpoint: mean tumor weight, dose: 25.0 mg/kg/injection, schedule: Q01DX010 (ip), vehicle: saline, higher = larger tumour",96 % of control
same,T/C,"endpoint: mean tumor weight, dose: 50.0 mg/kg/injection, schedule: Q01DX010 (ip), vehicle: saline, higher = larger tumour",71 % of control
same,T/C,"endpoint: mean tumor weight, dose: 50.0 mg/kg/injection, schedule: Q01DX011 (ip), vehicle: saline, higher = larger tumour",82 % of control
same,T/C,"endpoint: mean tumor weight, dose: 100.0 mg/kg/injection, schedule: Q01DX011 (ip), vehicle: saline, higher = larger tumour",80 % of control
CC(C)CC1NC(=O)C(NC(=O)c2ncccc2O)C(C)OC(=O)C(c2ccccc2)N(C)C(=O)C(C)NC(=O)C(C(C)C(C)C)N(C)C(=O)CN(C)C(=O)C2CC(O)CN2C1=O (configuration not stated) ({Picolinoyl(3-OH)}-TL[Hyp][Sar][X2]A[NMePhg]; ester 1-C; configuration not given here),T/C,"endpoint: mean tumor weight, dose: 5.3 mg/kg/injection, schedule: Q01DX011 (ip), vehicle: saline, higher = larger tumour",90 % of control
same,T/C,"endpoint: mean tumor weight, dose: 8.0 mg/kg/injection, schedule: Q01DX011 (ip), vehicle: saline, higher = larger tumour",86 % of control
same,T/C,"endpoint: mean tumor weight, dose: 12.0 mg/kg/injection, schedule: Q01DX011 (ip), vehicle: saline, higher = larger tumour",88 % of control
same,T/C,"endpoint: mean tumor weight, dose: 18.0 mg/kg/injection, schedule: Q01DX011 (ip), vehicle: saline, higher = larger tumour",122 % of control
O=P(Oc1ccccc1)(Oc1ccccc1)c1ccccc1,T/C,"endpoint: mean tumor weight, dose: 133.0 mg/kg/injection, schedule: Q01DX011 (ip), vehicle: other, higher = larger tumour",75 % of control
same,T/C,[2],91 % of control
CCCCn1cnc2c(=S)nc[nH]c21,T/C,"endpoint: mean tumor weight, dose: 15.0 mg/kg/injection, schedule: Q01DX011 (ip), vehicle: water, higher = larger tumour",49 % of control
same,T/C,"endpoint: mean tumor weight, dose: 30.0 mg/kg/injection, schedule: Q01DX011 (ip), vehicle: water, higher = larger tumour",60 % of control
same,T/C,"endpoint: mean tumor weight, dose: 60.0 mg/kg/injection, schedule: Q01DX011 (ip), vehicle: water, higher = larger tumour",53 % of control
CC(C)=CCC/C(C)=C/CNCCc1c[nH]c2ccccc12,T/C,[5],100 % of control
same,T/C,[6],101 % of control
same,T/C,[7],97 % of control
O=NN(CCCl)C(=O)NC(CCC(=O)O)C(=O)O (configuration not stated),T/C,"endpoint: median survival time, dose: 81.0 mg/kg/injection, schedule: Q01DX001 (ip), vehicle: saline with Tween-80, higher = longer survival",99 % of control
same,T/C,"endpoint: median survival time, dose: 122.0 mg/kg/injection, schedule: Q01DX001 (ip), vehicle: saline with Tween-80, higher = longer survival",95 % of control
same,T/C,"endpoint: median survival time, dose: 183.0 mg/kg/injection, schedule: Q01DX001 (ip), vehicle: saline with Tween-80, higher = longer survival",157 % of control
same,T/C,"endpoint: median survival time, dose: 184.0 mg/kg/injection, schedule: Q01DX001 (ip), vehicle: saline with Tween-80, higher = longer survival",117 % of control
same,T/C,"endpoint: median survival time, dose: 275.0 mg/kg/injection, schedule: Q01DX001 (ip), vehicle: saline with Tween-80, higher = longer survival",107 % of control
